Experimental data: patent US20230322846A9, “NEUROACTIVE STEROIDS AND THEIR METHODS OF USE” (SAGE THERAPEUTICS, INC., priority 2018, published 2023)
pIC50: −log10 of the molar value.

Each compound was assayed against [35S]-TBPS binding, rat brain cortical membranes (assay: Steroid inhibition of [35S]-TBPS binding). Details: 3 nM [35S]-TBPS, in the presence of 5 mM GABA.
Procedure: [^35S]-t-Butylbicyclophosphorothionate (TBPS) binding assays using rat brain cortical membranes in the presence of 5 mM GABA has been described (Gee et al, J. Pharmacol. Exp. Ther. 1987, 241, 346-353; Hawkinson et al, Mol. Pharmacol. 1994, 46, 977-985; Lewin, A. H et al., Mol. Pharmacol. 1989, 35, 189-194).
Briefly, cortices are rapidly removed following decapitation of carbon dioxide-anesthetized Sprague-Dawley rats (200-250 g). The cortices are homogenized in 10 volumes of ice-cold 0.32 M sucrose using a glass/teflon homogenizer and centrifuged at 1500×g for 10 min at 4° C. The resultant supernatants are centrifuged at 10,000×g for 20 min at 4° C. to obtain the P2 pellets. The P2 pellets are resuspended in 200 mM NaCl/50 mM Na—K phosphate pH 7.4 buffer and centrifuged at 10,000×g for 10 min at 4° C. This washing procedure is repeated twice and the pellets are resuspended in 10 volumes of buffer. Aliquots ([…]) of the membrane suspensions are incubated with 3 nM [^35S]-TBPS and […] aliquots of test drug dissolved in dimethyl sulfoxide (DMSO) (final 0.5%) in the presence of 5 mM GABA. The incubation is brought to a final volume of 1.0 mL with buffer. Nonspecific binding is determined in the presence of […] and ranged from 15 to 25%. Following a 90 min incubation at room temp, the assays are terminated by filtration through glass fiber filters (Schleicher and Schuell No. 32) using a cell harvester (Brandel) and rinsed three times with ice-cold buffer. Filter bound radioactivity is measured by liquid scintillation spectrometry. Non-linear curve fitting of the overall data for each drug averaged for each concentration is done using Prism (GraphPad). […] The concentration of test compound producing 50% inhibition (IC50) of specific binding and the maximal extent of inhibition (Imax) are determined for the individual experiments with the same model used for the overall data and then the means±SEM.s of the individual experiments are calculated.
Various compounds are or can be screened to determine their potential as modulators of [^35S]-TBPS binding in vitro. These assays are or can be performed in accordance with the above

Structure (SMILES)	pIC50
C[C@@H](NS(=O)(=O)c1ccccc1)[C@H]1CC[C@H]2[C@@H]3CC[C@@H]4C[C@](C)(O)CC[C@@H]4[C@H]3CC[C@]12C [Example 18, N—((R)-1-((3R,5R,8R,9R,10S,13S,14S,17S)-3-hydroxy-3,13-dimethylhexadecahydro-1H-cyclopenta[a]phenanthren-17-yl)ethyl)benzenesulfonamide]	> 7.00
C[C@@H]([C@H]1CC[C@H]2[C@@H]3CC[C@@H]4C[C@](C)(O)CC[C@@H]4[C@H]3CC[C@]12C)N(C)C(=O)c1ccccc1 [Example 19, N—((S)-1-((3R,5R,8R,9R,10S,13S,14S,17S)-3-hydroxy-3,13-dimethylhexadecahydro-1H-cyclopenta[a]phenanthren-17-yl)ethyl)-N-methylbenzamide]	5.00 to 6.00
C[C@H]([C@H]1CC[C@H]2[C@@H]3CC[C@@H]4C[C@](C)(O)CC[C@@H]4[C@H]3CC[C@]12C)N(C)C(=O)c1ccccc1 [Example 20, N-((1R)-1-((3R,5R,9R,10S,13S,14S,17S)-3-hydroxy-3,13-dimethylhexadecahydro-1H-cyclopenta[a]phenanthren-17-yl)ethyl)-N-methylbenzamide]	6.00 to 7.00
C[C@@H]([C@H]1CC[C@H]2[C@@H]3CC[C@@H]4C[C@](C)(O)CC[C@@H]4[C@H]3CC[C@]12C)N(C)S(=O)(=O)c1ccccc1 [Example 21, N—((S)-1-((3R,5R,8R,9R,10S,13S,14S,17S)-3-hydroxy-3,13-dimethylhexadecahydro-1H-cyclopenta[a]phenanthren-17-yl)ethyl)-N-methylbenzenesulfonamide]	5.00 to 6.00
C[C@H]([C@H]1CC[C@H]2[C@@H]3CC[C@@H]4C[C@](C)(O)CC[C@@H]4[C@H]3CC[C@]12C)N(C)S(=O)(=O)c1ccccc1 [Example 22, N—((R)-1-((3R,5R,8R,9R,10S,13S,14S,17S)-3-hydroxy-3,13-dimethylhexadecahydro-1H-cyclopenta[a]phenanthren-17-yl)ethyl)-N-methylbenzenesulfonamide]	> 7.00
C[C@H](NC(=O)c1ccccc1)[C@H]1CC[C@H]2[C@@H]3CC[C@@H]4C[C@](C)(O)CC[C@@H]4[C@H]3CC[C@]12C [Example 23, N—((S)-1-((3R,5R,8R,9R,10S,13S,14S,17S)-3-hydroxy-3,13-dimethylhexadecahydro-1H-cyclopenta[a]phenanthren-17-yl)ethyl)benzamide]	5.00 to 6.00
C[C@@H](NC(=O)c1ccccc1)[C@H]1CC[C@H]2[C@@H]3CC[C@@H]4C[C@](C)(O)CC[C@@H]4[C@H]3CC[C@]12C [Example 24, N—((R)-1-((3R,5R,8R,9R,10S,13S,14S,17S)-3-hydroxy-3,13-dimethylhexadecahydro-1H-cyclopenta[a]phenanthren-17-yl)ethyl)benzamide]	> 7.00
C[C@@H](Nc1ccccc1)[C@H]1CC[C@H]2[C@@H]3CC[C@@H]4C[C@](C)(O)CC[C@@H]4[C@H]3CC[C@]12C [Example 25, (3R,5R,8R,9R,10S,13S,14S,17S)-3,13-dimethyl-17-((R)-1-(phenylamino)ethyl)hexadecahydro-1H-cyclopenta[a]phenanthren-3-ol]	> 7.00
C[C@H](Nc1ccccc1)[C@H]1CC[C@H]2[C@@H]3CC[C@@H]4C[C@](C)(O)CC[C@@H]4[C@H]3CC[C@]12C [Example 26, (3R,5R,8R,9R,10S,13S,14S,17S)-3,13-dimethyl-17-((S)-1-(phenylamino)ethyl)hexadecahydro-1H-cyclopenta[a]phenanthren-3-ol]	5.00 to 6.00
C[C@@H](NC(=O)c1cccnc1)[C@H]1CC[C@H]2[C@@H]3CC[C@@H]4C[C@](C)(O)CC[C@@H]4[C@H]3CC[C@]12C [Example 29, N—((R)-1-((3R,5R,8R,9R,10S,13S,14S,17S)-3-hydroxy-3,13-dimethylhexadecahydro-1H-cyclopenta[a]phenanthren-17-yl)ethyl)nicotinamide]	6.00 to 7.00
C[C@H](NC(=O)c1cccnc1)[C@H]1CC[C@H]2[C@@H]3CC[C@@H]4C[C@](C)(O)CC[C@@H]4[C@H]3CC[C@]12C [Example 30, N—((S)-1-((3R,5R,8R,9R,10S,13S,14S,17S)-3-hydroxy-3,13-dimethylhexadecahydro-1H-cyclopenta[a]phenanthren-17-yl)ethyl)nicotinamide]	5.00 to 6.00
COC[C@@]1(O)CC[C@H]2[C@H](CC[C@@H]3[C@@H]2CC[C@]2(C)[C@@H]([C@@H](C)NC(=O)c4ccc(C#N)cn4)CC[C@@H]32)C1 [Example 31, 5-cyano-N—((R)-1-((3R,5R,8R,9R,10S,13S,14S,17S)-3-hydroxy-3-(methoxymethyl)-13-methylhexadecahydro-1H-cyclopenta[a]phenanthren-17-yl)ethyl)picolinamide]	6.00 to 7.00
COC[C@@]1(O)CC[C@H]2[C@H](CC[C@@H]3[C@@H]2CC[C@]2(C)[C@@H]([C@H](C)NC(=O)c4ccc(C#N)cn4)CC[C@@H]32)C1 [Example 32, 5-cyano-N—((S)-1-((3R,5R,8R,9R,10S,13S,14S,17S)-3-hydroxy-3-(methoxymethyl)-13-methylhexadecahydro-1H-cyclopenta[a]phenanthren-17-yl)ethyl)picolinamide]	5.00 to 6.00
C[C@@H](Nc1ccc(C#N)cc1)[C@H]1CC[C@H]2[C@@H]3CC[C@@H]4C[C@](C)(O)CC[C@@H]4[C@H]3CC[C@]12C [Example 33, 4-(((R)-1-((3R,5R,8R,9R,10S,13S,14S,17S)-3-hydroxy-3,13-dimethylhexadecahydro-1H-cyclopenta[a]phenanthren-17-yl)ethyl)amino)benzonitrile]	> 7.00
COC[C@@]1(O)CC[C@H]2[C@H](CC[C@@H]3[C@@H]2CC[C@]2(C)[C@@H]([C@H](C)Cn4nccc4C#N)CC[C@@H]32)C1 [Example 34, 1-((S)-2-((3R,5R,8R,9R,10S,13S,14S,17R)-3-hydroxy-3-(methoxymethyl)-13-methylhexadecahydro-1H-cyclopenta[a]phenanthren-17-yl)propyl)-1H-pyrazole-5-carbonitrile]	> 7.00
COC[C@@]1(O)CC[C@H]2[C@H](CC[C@@H]3[C@@H]2CC[C@]2(C)[C@@H]([C@H](C)Cn4ccc(C#N)n4)CC[C@@H]32)C1 [Example 35, 1-((S)-2-((3R,5R,8R,9R,10S,13S,14S,17R)-3-hydroxy-3-(methoxymethyl)-13-methylhexadecahydro-1H-cyclopenta[a]phenanthren-17-yl)propyl)-1H-pyrazole-3-carbonitrile]	> 7.00
COC[C@@]1(O)CC[C@H]2[C@H](CC[C@@H]3[C@@H]2CC[C@]2(C)[C@@H]([C@@H](C)Cn4ccc(C#N)n4)CC[C@@H]32)C1 [Example 36, 1-((R)-2-((3R,5R,8R,9R,10S,13S,14S,17R)-3-hydroxy-3-(methoxymethyl)-13-methylhexadecahydro-1H-cyclopenta[a]phenanthren-17-yl)propyl)-1H-pyrazole-3-carbonitrile]	> 7.00
